This is an account of results in PubChem BioAssay (NCI).

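Dose response: 5 concentrations. Exposure: 48 h. Format: 96-well plates. Endpoint: linear interpolation; highest concentration if not reached. The concentration for full growth arrest is given as TGI.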

Holding throughout (test): growth of human tumour cells (NCI), 48 h
In test [1] the test system is 786-0 renal.
Test [2] deals with CCRF-CEM leukemia.
Test [3] has as its system EKVX NSCLC.
For test [4], the system named is HCC-2998 colon.
Test [5] concerns HOP-62 NSCLC.
The subject of test [6] is HT29 colon.
Test [7] has as its system KM12 colon.
The test system of test [8] is LOX IMVI melanoma.
In test [9] the test system is MCF7 breast.
Test [10] deals with MDA-MB-435.
For test [11], the system named is RPMI-8226 leukemia.
The subject of test [12] is SK-MEL-28 melanoma.
Test [13] concerns SK-MEL-5 melanoma.
The test system of test [14] is SN12C renal.
Test [15] has as its system SNB-75 CNS.
Test [16] relates to SR leukemia.
In test [17] the test system is UACC-257 melanoma.
Test [18] deals with HL-60(TB) leukemia.
In test [19] the test system is NCI-H460 lung.
The subject of test [20] is BT-549 breast.

As for `COc1cccc(C2c3cc4c(cc3OC(N3CCCC3)C2C)OCO4)c1` (stereo unspecified), the TGI in test [1] was 33.7 µM; in test [2] it was 17.1 µM; in test [3] it was 94.1 µM; in test [4] it was 24.9 µM; in test [5], 19.8 µM; in test [6] it was 18.4 µM. The TGI in test [7] is 33 µM; in test [8] it was 30.5 µM; in test [9], 51.5 µM; in test [10] it was 11.6 µM; in test [11] it was 24.3 µM; in test [12] it was 32.9 µM. Also, the TGI in test [13] is 18.5 µM; in test [14], over 100 µM; in test [15], 81 µM; in [16], 21.4 µM; in test [17], 52.3 µM.

With `COc1ccc(-c2c(C(C)=O)c(-c3ccccc3)n(C3OC(COC(C)=O)C(OC(C)=O)C(OC(C)=O)C3OC(C)=O)c(=S)c2C#N)cc1` (stereo unspecified), the TGI in test [1], in test [2], in [3], in test [4], in [18] and in test [5] was over 100 µM each time. The TGI in test [6], in test [7], in [8], in test [9], in test [10] and in [19] was over 100 µM throughout. Also, the TGI in test [12], in [13], in [14], in test [15], in test [16] and in [17] was over 100 µM each time.

For the molecule `CO/N=C(\C(=O)Nc1cncs1)c1csc(NC(c2ccccc2)(c2ccccc2)c2ccccc2)n1`, the TGI in [1], in [20], in test [2], in [3], in [4] and in test [18] was over 10 µM in each case. In addition, the TGI in [5], in test [6], in [7], in test [8], in test [9] and in test [19] was over 10 µM each time. The TGI in test [11], in [12], in [13], in test [14], in [15] and in [16] was over 10 µM each time. Also, the TGI in [17] is over 10 µM.

On to `CCOC(=O)C(Cl)(NC(=O)c1ccc(F)cc1)C(F)(F)F` (stereo unspecified), for which the TGI in test [1], in [2], in [3], in test [4], in test [18] and in [5] was over 100 µM in each case. Moreover, the TGI in test [6], in test [7], in test [8], in [9], in test [10] and in [19] was over 100 µM throughout. Further, the TGI in test [11], in test [12], in [13], in test [14], in test [15] and in [16] was over 100 µM each time. The molecule also showed a TGI in [17] of over 100 µM.

For the molecule `COc1cc(C2c3cc4c(cc3[C@@H](Nc3ccccc3)C3CO[C@@H](OC)[C@H]23)OCO4)cc(OC)c1O` (stereo partly specified), the TGI in test [1] is 15.4 µM; in test [2], 11.3 µM; in [3] it was over 25 µM; in test [4], over 25 µM; in test [18], 8.24 µM; in [5], over 25 µM. Moreover, the TGI was 10.7 µM in test [6]; over 25 µM in test [7]; over 25 µM in test [9]; over 25 µM in test [10]; over 25 µM in test [19]; 10.2 µM in [11]. Besides, the TGI was over 25 µM in [12]; over 25 µM in test [13]; over 25 µM in test [14]; over 25 µM in test [15]; 22.6 µM in [16]; over 25 µM in test [17].

As to `O=c1c2ccccc2nnn1-c1n[nH]c2ccccc12`, the TGI in test [1], in test [20], in test [2], in test [3], in [4] and in test [5] was over 100 µM throughout. For the same molecule, the TGI in test [6], in [7], in [9], in [10], in test [19] and in test [11] was over 100 µM in each case. Moreover, the TGI in [12], in test [13], in test [14], in test [15] and in test [17] was over 100 µM each time.

On to `CCOC(=O)c1c(SC(=O)/C=C/c2ccccc2)n(-c2ccccc2)c(=S)n(-c2ccccc2)c1=O`, for which the TGI in test [1], in test [2], in test [3], in [4], in [5] and in [6] was over 100 µM in each case. In addition, the TGI in test [7], in test [8], in [9], in test [10], in test [19] and in test [12] was over 100 µM each time. Further, the TGI in test [14], in [15], in test [16] and in test [17] was over 100 µM throughout.

Turning to `Cc1cc(O)c(/C=N/C(=S)NCCc2ccccc2)c(=O)o1`, the TGI in test [1], in test [20], in [3], in [4], in test [18] and in test [5] was over 100 µM throughout. The TGI in [6], in [7], in test [8], in [9], in test [10] and in [19] was over 100 µM throughout. The TGI in test [12], in test [13], in [14], in test [15] and in test [17] was over 100 µM each time.
